Data: patent US20240417410A1, “TRICYCLIC COMPOUNDS FOR THE TREATMENT OF CANCER” (Hoffmann-La Roche Inc., priority 2023, published 2024)
Read-outs that look alike come from different tables or passages of the source.

Assays:
Assay in all cases: Cell proliferation, CTG 3D, 7 d
Assay type in all cases: cell-based
OCI-AML-3 = conditions: Homo sapiens
Procedure: (§1) On Day-1, cells were plated in 384-well round-bottom ultra-low adhesion plates (cat. Corning 3830, with cell density adjusted according to Table 3. The assay plate was then centrifuged at 1000 rpm for 1 minute to ensure even distribution of cells. The plate was incubated at 37° C. in a 5% CO2 atmosphere (It is worth noting that for SW1271 cell plate, it needs to be incubated in an incubator without additional CO2).
(§2) On Day 0, Example 24 or A122 was added to each well using a Tecan HP D300E dispenser, with a 3-fold dilution across 9 doses. The final concentration of DMSO was normalized to 0.2%. The assay plate was then centrifuged at 1000 rpm for 1 minute and incubated for 7 days.
(§3) On Day 7, CellTiter-Glo (CTG) 3D reagent (Promega G9683) was dispensed into each well of a 384-well plate using a multi-drop dispenser (Thermo Scientific 66413). A liquid handling automation workstation (Bravo with a 384-well head) was used to mix the CTG reagents. Plates were left on a shaker for 30 minutes at 450 rpm, shielded from light.
(§4) For data analysis, the XL-fit software (Supplier: ID Business Solutions Ltd., Software version: XL fit 5.0) was utilized. The percentage of inhibition was calculated using the formula: Inhibition %=(Max-Sample value)/(Max-Min)×100. Curve fitting was performed as follows: For complete dose-response curves, the relative IC50 was reported from the fit. For incomplete curves, if minimal inhibition was greater than 50%, an IC50 less than the lowest compound concentration was reported. If minimal inhibition was between 20% and 50%, the bottom was locked at 0% and the IC50 was reported. If maximal inhibition was less than 50%, an IC50 greater than the highest compound concentration was reported.

RL95-2 = conditions: Homo sapiens
Procedure: as §1, §2, §3, §4

Hs-766T = conditions: Homo sapiens, Hs766T
Procedure: as §1, §2, §3, §4

LU99 = conditions: Homo sapiens, Lu-99; LU99, KRAS (G12C)
Procedure: as §1, §2, §3, §4

GA-10 = conditions: Homo sapiens; GA-10, NRAS (p.G12V)
Procedure: as §1, §2, §3, §4

PL-21 = conditions: Homo sapiens
Procedure: as §1, §2, §3, §4

OCI-Ly19 = conditions: Homo sapiens
Procedure: as §1, §2, §3, §4

HPAC = conditions: Homo sapiens, KRAS (G12D)
Procedure: as §1, §2, §3, §4

RCM-1 = conditions: Homo sapiens; RCM-1, KRAS (G12V)
Procedure: as §1, §2, §3, §4

NCI-H2291 = conditions: Homo sapiens
Procedure: as §1, §2, §3, §4

MM.1S = conditions: Homo sapiens, MM1.S
Procedure: as §1, §2, §3, §4

NCI-H2122 = conditions: Homo sapiens; NCI-H2122, KRAS (G12C)
Procedure: as §1, §2, §3, §4

HAL-01 = conditions: Homo sapiens
Procedure: as §1, §2, §3, §4

NCI-H1734 = conditions: Homo sapiens
Procedure: as §1, §2, §3, §4

H9 = conditions: Homo sapiens
Procedure: as §1, §2, §3, §4

Panc 02.13 = conditions: Homo sapiens
Procedure: as §1, §2, §3, §4

SNU-668 = conditions: Homo sapiens, SNU668
Procedure: as §1, §2, §3, §4

TF-1 = conditions: Homo sapiens
Procedure: as §1, §2, §3, §4

KMS-28BM = conditions: Homo sapiens
Procedure: as §1, §2, §3, §4

GP2d = conditions: Homo sapiens, KRAS (G12D)
Procedure: as §1, §2, §3, §4

NCI-H441 = conditions: Homo sapiens; NCI-H441, KRAS (G12V)
Procedure: as §1, §2, §3, §4

CHP-212 = conditions: Homo sapiens
Procedure: as §1, §2, §3, §4

KLE = conditions: Homo sapiens, KRAS (WT ampl)
Procedure: as §1, §2, §3, §4

MDA-MB-231 = conditions: Homo sapiens
Procedure: as §1, §2, §3, §4

SK-MEL-2 = conditions: Homo sapiens
Procedure: as §1, §2, §3, §4

PANC-1 = conditions: Homo sapiens; PANC-1, KRAS (G12D)
Procedure: as §1, §2, §3, §4

SW 900 = conditions: Homo sapiens, SW900; SW 900, KRAS (G12V)
Procedure: as §1, §2, §3, §4

HEC-1-A = conditions: Homo sapiens, KRAS (G12D)
Procedure: as §1, §2, §3, §4

Q: For `CCn1c(-c2cc(N3CCN(C)CC3)cnc2[C@H](C)OC)c2c3cc(ccc31)-c1csc(n1)C[C@H](NC(=O)[C@H]1C[C@@H]1C)C(=O)N1CCC[C@H](N1)C(=O)OCC(C)(C)O2` [Example A122, reference compound], which IC50 (OCI-AML-3; OCI-AML-3) is on record?
A: 8.9 nM

Q: And the IC50 (RL95-2; RL95-2)?
A: 2.6 nM

Q: And the IC50 (Hs-766T)?
A: 100 nM

Q: What about the IC50 (LU99) of the same compound?
A: 0.91 nM

Q: What about the IC50 (GA-10) of the same compound?
A: 1000 nM

Q: And the IC50 (PL-21; PL-21)?
A: 2.1 nM

Q: And the IC50 (OCI-Ly19; OCI-LY19)?
A: 2.4 nM

Q: What about the IC50 (HPAC) of the same compound?
A: 0.3 nM

Q: And the IC50 (RCM-1)?
A: 6.5 nM

Q: And the IC50 (NCI-H2291; NCI-H2291)?
A: 1 nM

Q: And the IC50 (MM.1S)?
A: 0.55 nM

Q: And the IC50 (NCI-H2122)?
A: 0.62 nM

Q: And the IC50 (HAL-01; HAL-01)?
A: 14 nM

Q: What about the IC50 (NCI-H1734; NCI-H1734) of the same compound?
A: 1.3 nM

Q: And the IC50 (H9; H9)?
A: 1.6 nM

Q: What about the IC50 (Panc 02.13) of the same compound?
A: 15 nM

Q: And the IC50 (SNU-668)?
A: 4.3 nM

Q: And the IC50 (TF-1; TF-1)?
A: 100 nM

Q: And the IC50 (KMS-28BM)?
A: 0.88 nM

Q: What about the IC50 (GP2d) of the same compound?
A: 0.55 nM

Q: What about the IC50 (NCI-H441) of the same compound?
A: 0.49 nM

Q: What about the IC50 (CHP-212; CHP-212) of the same compound?
A: 1.1 nM

Q: What about the IC50 (KLE) of the same compound?
A: 100 nM

Q: And the IC50 (MDA-MB-231; MDA-MB-231)?
A: 20 nM

Q: And the IC50 (SK-MEL-2; SK-MEL-2)?
A: 3 nM

Q: What about the IC50 (PANC-1) of the same compound?
A: 0.68 nM

Q: What about the IC50 (SW 900) of the same compound?
A: 0.23 nM

Q: What about the IC50 (HEC-1-A) of the same compound?
A: 1.9 nM

Q: What does the source list for `CO[C@@H](C)c1ncc(N2CCN(C)CC2)cc1-c1c2c3cc(cc4c3n1CCC4)-c1csc(n1)C[C@H](NC(=O)[C@H]1[C@H](C)[C@@H]1C)C(=O)N1CCC[C@H](N1)C(=O)OCC(C)(C)C2` (atropisomer, axis not shown; (M)) [Example 24, (1r,2R,3S)-N-[(7S,13S)-(20M)-20-[2-[(1S)-1-methoxyethyl]-5-(4-methylpiperazin-1-yl)-3-pyridyl]-17,17-dimethyl-8,14-dioxo-15-oxa-4-thia-9,21,30,31-tetrazahexacyclo[23.3.1.1^2,5.1^9,13.0^19,27.0^21,26]hentriaconta-1 (28),2,5 (31), 19,25 (29),26-hexaen-7-yl]-2,3-dimethyl-cyclopropanecarboxamide]?
A: IC50 (OCI-AML-3; OCI-AML-3, NRAS (p.Q61L), read-out: IC50): 3.3 nM; IC50 (RL95-2; RL95-2, HRAS (p.Q61H), read-out: IC50): 1.3 nM; IC50 (Hs-766T; Hs-766T, KRAS (Q61H), read-out: IC50): 100 nM; IC50 (LU99): 0.59 nM; IC50 (GA-10): 1000 nM; IC50 (PL-21; PL-21, KRAS (A146V), read-out: IC50): 1 nM; IC50 (OCI-Ly19; OCI-Ly19, NRAS (p.Q61K), read-out: IC50): 1.9 nM; IC50 (HPAC): 0.31 nM; IC50 (RCM-1): 2.2 nM; IC50 (NCI-H2291; NCI-H2291, KRAS (G12F), read-out: IC50): 0.55 nM; IC50 (MM.1S; MM.1S, KRAS (G12A), read-out: IC50): 0.3 nM; IC50 (NCI-H2122): 0.39 nM; IC50 (HAL-01; HAL-01, NRAS (p.G12S), read-out: IC50): 13 nM; IC50 (NCI-H1734; NCI-H1734, KRAS (G13C), read-out: IC50): 0.74 nM; IC50 (H9; H9, NRAS (p.Q61K), read-out: IC50): 0.72 nM; IC50 (Panc 02.13; Panc 02.13, KRAS (Q61R), read-out: IC50): 4 nM; IC50 (SNU-668; SNU-668, KRAS (Q61K), read-out: IC50): 2 nM; IC50 (TF-1; TF-1, NRAS (p.Q61P), read-out: IC50): 130 nM; IC50 (KMS-28BM; KRAS (G12A), read-out: IC50): 0.63 nM; IC50 (GP2d): 0.63 nM; IC50 (NCI-H441): 0.25 nM; IC50 (CHP-212; CHP-212, NRAS (p.Q61K), read-out: IC50): 0.35 nM; IC50 (KLE): 100 nM; IC50 (MDA-MB-231; MDA-MB-231, KRAS (G13D), read-out: IC50): 27 nM; IC50 (SK-MEL-2; SK-MEL-2, NRAS (p.Q61R), read-out: IC50): 2 nM; IC50 (PANC-1): 0.95 nM; IC50 (SW 900): 0.28 nM; IC50 (HEC-1-A): 1.6 nM
